These results are taken from US20260240846A1, “ZAK ALPHA KINASE (MAP3K20) INHIBITORS FOR USE IN THE TREATMENT OF ANEMIA” (UNIVERSIDAD DE MURCIA, priority 2023, published 2026).

The subject of one assay is K562 cells. Put plainly: Erythroid differentiation assay in K562 cells (hemin; hemoglobin accumulation, western blot). In kind it is cell-based, human. Here is the method: FIG. 1. ZAKα/P38 signaling pathway is activated in K562 after erythroid differentiation and its inhibition facilitates terminal erythroid differentiation. K562 cells were pre-treated with 0.1 μM nilotinib (Nil) (A, C, D), 1 μM anisomycin (B) and/or the indicated concentrations of the […] CX-5461 for 24 h, and then differentiated with 50 μM hemin for another 24 h. Hemoglobin accumulation (A, B, D) and NLRP1, phosphorylated P38, GATA1, ZAKα and ACTB (A-C) amounts were then evaluated by western blot. Immunoblots are representative of 3 independent experiments. #1, ACTB; #2, GATA1.
FIG. 2. The ZAKα/P38 signaling pathways is activated in K562 after erythroid differentiation. K562 cells were pre-treated with 0.1 μM nilotinib for 24 h and then differentiated with 50 μM hemin for the indicated times. The amounts of NLRP1, GATA1, phosphorylated P38, total ZAKα, phosphorylated ZAKα (Phos-tag) and ACTB were then evaluated by western blot.
(§1) FIG. 10. Imatinib and dasatinib promote erythropoiesis in human and zebrafish. (A) K562 cells were pretreated with the indicated concentrations of nilotinib, imatinib or dasatinib for 24 h and then differentiated with 50 μM hemin for 24 h. The amounts of NLRP1, GATA1, phosphorylated P38, total ZAKα and ACTB were then evaluated by western blot. (B) Zebrafish larvae were treated from 1 to 2 dpf with the indicated concentrations of nilotinib, imatinib or dasatinib. Representative images and number of neutrophils in larvae of 2 dpf treated by bath immersion with the indicated concentrations of imatinib and dasatinib. Each dot represents one individual and the mean±SEM for each group is also shown. P values were calculated by one-way ANOVA and Tukey's multiple range test. n.s., non-significant. ***P<0.001; ****P<0.0001.
(§2) FIG. 11. Ponatinib and bosutinib promote erythropoiesis in human and zebrafish. (A) K562 cells were pretreated with the indicated concentrations of nilotinib, ponatinib and bosutinib for 24 h and then differentiated with 50 μM hemin for the indicated times. The amounts of NLRP1, total ZAKα, GATA1, phosphorylated P38 and ACTB were then evaluated by western blot. (B) Number of neutrophils in larvae of 2 dpf treated by bath immersion with the indicated concentrations of ponatinib and bosutinib. Each dot represents one individual and the mean±SEM for each group is also shown. P values were calculated by one-way ANOVA and Tukey's multiple range test. n.s., non-significant, *P<0.05. **P<0.01. ***P<0.001.
K562 cells (CRL-3343; American Type Culture Collection) were maintained in RPMI culture medium supplemented with 10% fetal calf serum (FCS), 2 mM Glutamine, and 1% penicillin-streptomycin (Life Technologies). Cells were maintained and subcultured before confluence every 72 h. For differentiation, cells were treated with 50 μM hemin (#16009-13-5, Sigma-Aldrich) in the presence of 0.1% DMSO alone or with the caspase-1 inhibitor VX-765 (100 μM), the tyrosine kinase inhibitor nilotinib (0.1 μM), the RNA polymerase I inhibitor CX-5461 (200 nM, 1 μM and 10 μM) (all from MedChemExpress). Cells were collected at different time points (0, 24, 48 hours post-hemin addition), centrifuged, washed twice with PBS, and stored at −80° C. for further analysis.
Cells were lysed in 50 mM Tris-HCl (pH 7.5), 150 mM NaCl, 1% (w/v) NP-40 and fresh protease inhibitor (1/20, #P8340, Sigma-Aldrich). Protein quantification was performed with the BCA kit using BSA as standard. Cell lysates ([…]) in SDS sample buffer were subjected to electrophoresis on a polyacrylamide gel and transferred to nitrocellulose membranes. The membranes were incubated for 1 h with TTBS containing 5% (w/v) skimmed dried milk powder or 2% (w/v) BSA. The membranes were immunoblotted in the same buffer 16 h at 4° C. with the different primary antibodies diluted 1/1000. The blots were then washed with TTBS and incubated for 1 h at room temperature with secondary HRP-conjugated antibodies diluted 2,500-fold in 5% (w/v) skimmed milk in TTBS. […]

Another assay relates to zebrafish larvae. Put plainly: Chemical treatment of zebrafish larvae by bath immersion; counting of neutrophils and erythrocytes. It counts as in vivo, Zebrafish (Danio rerio H.). Here is the method: FIG. 3. ZAKα regulates hematopoiesis in zebrafish through the Nlrp1 inflammasome. Number of neutrophils (B, D, H), erythrocytes (F) and macrophages (J), and caspase-1 activity (K) in 2 dpf larvae either treated from 1 to 2 dpf by bath immersion with 1 μM nilotinib and/or 100 μM anisomycin (A-D) or obtained by injecting one-cell stage embryos with standard or zaka crRNAs/Cas9 complexes (E-K). Representative images of neutrophils (A, C, G), erythrocytes (E) and macrophages (I) are also shown. Each dot represents one individual and the mean±SEM for each group is also shown. P values were calculated using one-way ANOVA and Tukey's multiple range test (B) or Student's t-test (D, F, H, J, K). n.s., non-significant; *P<0.05; **P<0.01; ***P<0.001.
FIG. 6. NLRP1 is activated by phosphorylation of the linker domain after activation of ZAKα and pharmacological inhibition of this signaling pathway promotes erythropoiesis in DBA. (A-D) Number of neutrophils (A-C), and caspase-1 activity (D) in 2 dpf larvae obtained by injection of one-cell stage embryos with human NLRP1 (wild type-WT, S107A and S107D) and treated from 1 to 2 dpf by bath immersion with 1 μM nilotinib (B-D). Representative images of neutrophils (arrows) are also shown in C. (E, F) BMMCs from a DBA patient were incubated for 2 weeks in human methylcellulose complete medium at 37° C. in the presence or absence of the indicated concentrations of nilotinib, and colonies were counted using standard morphological criteria. Each dot represents one individual and the mean±SEM for each group is also shown. P values were calculated by one-way ANOVA and Tukey's multiple range test. n.s., non-significant; *P<0.05; **P<0.01; ***P<0.001; ****P<0.0001.
as §1, §2
Zebrafish (Danio rerio H.) were obtained from the Zebrafish International Resource Center and mated, staged, raised and processed as described in The Zebarfish Book. The lines Tg(mpx:eGFP)^t114, Tg(lyz:DsRED2)^n250, Tg(mfap4:mCherry)^ump6, Tg(gata1a:DsRed)^sd2 Tg(runx1:GAL4)^utn6), Tg(UAS-E1B:NTR-mCherry) and casper (mitfa^w2/w2; mpv17^a9/a9) were previously described. spint1a^hi2217Tg/hi2217Tg was isolated from insertional mutagenesis screens. The experiments performed comply with the Guidelines of the European Union Council (Directive 2010/63/EU) and the Spanish RD 53/2013. The experiments and procedures performed were approved by the Bioethical Committees of the University of Murcia (approval number #669/2020). […]

The next assay relates to HSPCs from DBA patients. Nature of the assay: Colony assay of PBMCs from DBA patients in methylcellulose medium. It counts as cell-based, human. The note with it: 2 weeks, indicated concentrations (FIG. 13A). On the procedure: FIG. 13. […] PBMCs from DBA patients were incubated for 2 weeks in human methylcellulose complete medium at 37° C. in the presence or absence of the indicated concentrations of nilotinib, imatinib, dasatinib, bosutinib and ponatinib, and the number of erythroid (A) and myeloid (B) colonies counted using standard morphological criteria. Each dot represents one patient and the means±SEM for each group is also shown.

On to `Cc1cnc(CNC(=O)c2c(=O)c3ccc(N4CCCN(C)CC4)nc3n3c2sc2ccccc23)cn1` [CX-5461], for which, in the assay with K562 cells (CX-5461 at indicated concentrations 24 h, then 50 μM hemin 24 h, hemoglobin accumulation (FIG. 1D)), the “erythroid differentiation in K562 cells” value is reported as “impairs erythroid differentiation”.
Take `COc1ccc(C[C@H]2NC[C@H](O)[C@H]2OC(C)=O)cc1` [anisomycin]: the “neutrophil number in Nlrp1- and Zaka-deficient larvae” value with zebrafish larvae (larvae 2 dpf, anisomycin) is reported as “failed to increase neutrophil number”. Further, in the assay with zebrafish larvae (wild type larvae 2 dpf, bath immersion 1 to 2 dpf, 1 μM nilotinib, 100 μM anisomycin), the neutrophil number entry is given as “caused neutrophilia”.
Turning to `Cc1ccc(NC(=O)c2ccc(CN3CCN(C)CC3)cc2)cc1Nc1nccc(-c2cccnc2)n1` [imatinib], the GATA1 protein amounts result in the assay on K562 cells (K562 cells, indicated concentrations of TKI 24 h, then 50 μM hemin, western blot (FIG. 10A, 11A)) is “enhancing GATA1 amount”. In the assay with K562 cells (indicated concentrations of TKI 24 h, then 50 μM hemin (FIG. 10A, 11A)), the “erythroid differentiation of K562 cells” value is “promoted erythroid differentiation of K562 cells by blocking the ZAKα/P38 axis”. Further, the “defective erythropoiesis of HSPCs from DBA patients (erythroid colonies)” value with HSPCs from DBA patients is “alleviated defective erythropoiesis”. Further, the “number of erythrocytes in zebrafish larvae” value in the assay with zebrafish larvae (bath immersion 1 to 2 dpf, imatinib 1 and 10 μM, dasatinib 0.1 and 1 μM (FIG. 10B)) is on record as “enhanced the number of erythrocytes”.
